Series [1] concerns prokaryotic protein synthesis. Briefly: in vitro transcription-translation assay. To be noted: read-out: half-maximum inhibitory concentration, inhibition of prokaryotic protein synthesis. The class given is biochemical.
Series [2] has as its system indicator bacterial strains. Description: antibacterial activity, minimum inhibitory concentrations. The class given is cell-based. To be noted: range over the strains tested (Table S5).
Another series is described as follows: aqueous solubility. The class given is physicochemical.
For series [3] the following is noted: comparison value for 1; cited from earlier work.

Read-outs that look alike come from different tables or passages of the source. Where no end group is shown, it is not given here.

Broadly, the aqueous solubility is the concentration that dissolves in the medium under given conditions. With thiostrepton Aa [compound 7], the IC50 in series [1] is 260 ± 40 nM. Besides, the results for the minimum inhibitory concentrations in series [2] and in series [2] (in molar units) were 0.018 to 0.098 µg/mL and 0.010 to 0.058 µM, respectively. The substance also showed an aqueous solubility in “aqueous solubility” of 26.01 ± 0.05 µM.
For “IASASCTTCICTCSCSS (also: bicyclic or more (positions not given here)) [compound 1, thiostrepton A, reference compound]”, in series [1], the IC50 is 500 ± 40 nM. In addition, the aqueous solubility in series [3] is 21.88 ± 0.05 µM.

The values are drawn from paper PMC6193465 (Journal of the American Chemical Society, 2018).
